Experimental findings from patent US20210308101A1, “METHODS OF TREATING FIBROMYALGIA” (Aptinyx Inc., priority 2019, published 2021) are described below.

Holding throughout (assay type): in vivo, human
Assay [1] concerns subjects with fibromyalgia. Kind of assay: PROMIS Physical Function short form. The source says:
As used herein, the “PROMIS Physical Function short form” is Patient Reported Outcomes Measurement Information System Physical Function Short Form. The PROMIS physical function short form version 1.0 12a measures the self-reported performance of physical activities including dexterity, walking or mobility and the ability to complete activities of daily living. All 12 questions are based on a 5-point numerical rating scale/Likert scale ranging from 1 to 5 with different categorical responses. Higher scores represent a better quality of life. The PROMIS physical function is made of the 2 following subdomains: • Walking Subdomain Score • If the question, “Can you walk 25 feet on a level surface (with or without support)?” is answered yes, then 6 questions will be assessed. Otherwise, the Walking Subdomain Score will not be calculated. 4 Questions with Scores Ranging from 1 (Unable to do) to 5 (Without any difficulty): • Are you able to walk on flat ground? • Are you able to walk up and down two steps? • Are you able to run at a fast pace for 2 miles? • Are you able to do yard work like raking leaves, weeding, or pushing a lawn mower? 2 Questions with Scores Ranging from 1 (Cannot do) to 5 (Not at all): • Does your health now limit you in doing strenuous activities such as backpacking, skiing, playing tennis, bicycling, or jogging? • Does your health now limit you in hiking a couple of miles on uneven surfaces, including hills? • Sum of those 6 Questions make up the Walking Subdomain Score Ranging from 6 to 30 • Other Physical Function Subdomain Score 5 Questions with Scores Ranging from 1 (Unable to do) to 5 (Without any difficulty): • Are you able to wash and dry your body? • Are you able to get in and out of bed? • Are you able to bend down and pick up clothing from the floor? • Are you able to push open a heavy door? • Are you able to reach and get down an object (such as a can of soup) from above your head? 1 Question with Scores Ranging from 1 (Cannot do) to 5 (Not at all): • Does your health now limit you in doing eight hours of physical labor? • Sum of those 6 Questions make up the Other Physical Function Subdomain Score Ranging from 6 to 30
If at least 3 questions have been answered within an individual subdomain, that subdomain score may be imputed if missing responses are present. […] A total score for PROMIS physical function was not calculated. The PROMIS physical function assessment was collected and analyzed at visits Screening, Day 1, Week 2, Week 4, Week 6, and Follow-up (Week 7). […] Additionally, the treatment group comparisons were analyzed using the paired t-test and nonparametric Wilcoxon signed-rank test. All PROMIS physical function data collected and the calculated subdomain scores at each visit were presented in a subject listing.

For assay [2], the system named is subjects with fibromyalgia. Kind of assay: Hospital Anxiety and Depression Scale (HADS). Conditions: Weeks 4 and 6. The source says: As used herein, “HADS” is Hospital Anxiety and Depression Scale. The HADS is a self-reported screening tool for anxiety and depression in non-psychiatric clinical populations. The scale consists of 14 items (7 each for anxiety and depression), each rated on a 4-point scale ranging from 0 to 3 (i.e. 0=not at all; 3=most of the time). The categorical responses are slightly different for some of the questions, but the numeric scores remained the same from 0 to 3. Responses were based on the relative frequency of symptoms over the preceding week. […] The individual imputed missing scores used the specific subscale mean score and were rounded off to the nearest whole number. If an individual subscale score was missing 4 or more items, then that subscale score was set to missing. A total score adding the anxiety and depression subscale scores for HADS was not calculated. Possible scores range from 0 to 21 for each subscale. […]
The HADS assessment was collected and analyzed at visits Screening, Day 1, Week 2, Week 4, Week 6, and Follow-up (Week 7). […] Additionally, the treatment group comparisons were analyzed using the paired t-test and nonparametric Wilcoxon signed-rank test.
The 4 interpreted categorical values for each subscale were summarized in a frequency distribution table. All HADS data collected and the calculated subscale scores at each visit were presented in a subject listing.

The subject of assay [3] is subjects with fibromyalgia. Kind of assay: Multidimensional Inventory of Subject Cognitive Impairment (MISCI). The conditions noted are these: not statistically significant. An excerpt: As used herein, “MISCI” is Multidimensional Inventory of Subject Cognitive Impairment. The MISCI is a 10-item assessment that measures cognitive function. The instrument examines 5 cognitive domains: mental clarity, memory, language, executive functioning, and attention/concentration. The first 6 items are positively worded and reflect perceived cognitive abilities and the last 4 items are negatively worded and reflect perceived cognitive difficulties. The same scoring metric is used for both response scales. However, the scores on items 7-10 must be reverse-coded prior to summing the responses to generate the total score due to the negative wording of these items. Here is a list of the categorical responses with the numeric values that make up the total score: • Positively Worded Items 1-6:“Not at All”=1; “A Little Bit”=2; “Somewhat”=3; “Quite a Bit”=4; “Very Much”=5 • Negatively Worded Items 7-10: “Never”=5; “Rarely”=4; “Sometimes”=3; “Often”=2; “Very Often”=1
The total score was calculated by the sum of all the 10 items ranging from 10 to 50, with higher scores indicating better perceived cognitive functioning (i.e. lower impairment). […] The MISCI assessment was collected and analyzed at visits Screening, Day 1, Week 2, Week 4, Week 6, and Follow-up (Week 7). […] Additionally, the treatment group comparisons were analyzed using the paired ttest and nonparametric Wilcoxon signed-rank test.

Setting [4] is: Week 2 (placebo) to Week 4 (NYX-2925 20 mg).
[5] abbreviates: Week 2 (placebo) to Week 6 (NYX-2925 200 mg), not statistically significant.

`CC(C)C(=O)N1CCC[C@]12CN([C@H](C(N)=O)[C@@H](C)O)C2=O` [NYX-2925, (2S, 3R)-3-hydroxy-2-((R)-5-isobutyryl-1-oxo-2,5-diazaspiro[3.4]octan-2-yl)butanamide]: in assay [1] (setting [4]), the “PROMIS Physical Function Other Physical Function Subdomain score, mean change” value is on record as −0.1 and the “PROMIS Physical Function Walking Subdomain score, mean change” value amounted to 0.2. For the same molecule, in assay [1] (setting [5]), the “PROMIS Physical Function Other Physical Function Subdomain score, mean change” value was 0.4 and the “PROMIS Physical Function Walking Subdomain score, mean change” value is 0.5. In assay [2], the “HADS Total Anxiety score, mean changes from Week 2 (placebo)” value is “No statistically significant mean changes” and the “HADS Total Depression score, mean changes from Week 2 (placebo)” value was “No statistically significant mean changes”. Moreover, the “MISCI Total score, mean change” value in assay [3] (setting [4]) was 1.1. Also, the “MISCI Total score, mean change” value in assay [3] (Week 2 (placebo) to Week 6 (NYX-2925 200 mg)) was 0.9.
